Measured values as given in patent US20070128217A1 (priority 2003, published 2007).

Experiments:
[1] = tested on: rabbit serum obtained by immunizing a rabbit with the SARS-CoV strain Frankfurt 1; format: binding; design: Binding of a rabbit serum to linear peptides / Binding of a rabbit serum to looped peptides / Rabbit serum linear peptides / Rabbit serum looped peptides / Binding of a rabbit serum to linear peptides of protein N of SARS-CoV Urbani (Rabbit serum linear peptides) / Binding of a rabbit serum to looped/cyclic peptides of protein N of SARS-CoV Urbani (Rabbit serum looped peptides): unit not given here
[2] = tested on: control sera (pooled serum of ten healthy LUMC hospital workers; commercial negative donor pooled serum from the Dutch bloodbank); format: binding, human; design: Binding of Control serum LUMC to linear peptides / Binding of Control serum Blood-bank to linear peptides / Binding of Control serum LUMC to looped peptides / Binding of Control Serum Blood-Bank to Looped peptides / Binding of Control serum LUMC to linear peptides of the protein M of SARS-CoV Urbani / Binding of Control serum Blood-bank to linear peptides of the protein M of SARS-CoV Urbani / Binding of Control serum LUMC to looped peptides of the protein M of SARS-CoV Urbani / Binding of Control Serum Blood-Bank to Looped peptides of the protein M of SARS-CoV Urbani: unit not given here
[3] = tested on: antibodies in sera from SARS patients (sera 1a, 1b, 2, 6, 37, 62, London, SARS-yellow, SARS-green); format: binding, human; design: Binding of serum 6 to linear peptides of protein X1 of SARS-CoV Urbani / Binding of serum 37 to linear peptides of protein X1 of SARS-CoV Urbani / Binding of serum 6 to looped/cyclic peptide (PEPSCAN-ELISA) / Binding of serum 37 to looped/cyclic peptide (PEPSCAN-ELISA) / Binding of serum 37 to looped/cyclic peptides of protein X1 of SARS-CoV Urbani / Binding of serum 6 to linear peptides of protein X2 / Binding of serum 37 to linear peptides of protein X2 / Binding of serum 37 to looped/cyclic peptides of protein X2 of SARS-CoV Urbani / Binding of serum 6 to linear peptides of protein M of SARS-CoV Urbani / Binding of serum 37 to linear peptides of protein M of SARS-CoV Urbani / Binding of serum 6 to looped/cyclic peptides of protein M of SARS-CoV Urbani / Binding of serum 37 to looped/cyclic peptides of protein M of SARS-CoV Urbani / Binding of serum 6 to linear peptides of protein X3 of SARS-CoV Urbani / Binding of serum 37 to linear peptides of protein X3 of SARS-CoV Urbani / Binding of serum 37 to looped/cyclic peptides of protein X3 of SARS-CoV Urbani / Binding of serum 6 to linear peptides of protein X4 of SARS-CoV Urbani / Binding of serum 37 to linear peptides of protein X4 of SARS-CoV Urbani / Binding of serum 37 to looped/cyclic peptides of protein X4 of SARS-CoV Urbani / Binding of serum 6 to linear peptides of protein X5 of SARS-CoV Urbani / Binding of serum 37 to linear peptides of protein X5 of SARS-CoV Urbani / Binding of serum 37 to looped/cyclic peptides of protein X5 of SARS-CoV Urbani / Binding of serum 6 to linear peptides of protein N of SARS-CoV Urbani / Binding of serum 37 to linear peptides of protein N of SARS-CoV Urbani / Binding of serum 6 to linear peptide (PEPSCAN-ELISA) / Binding of serum 1a to looped/cyclic peptides of protein N of SARS-CoV Urbani / Binding of serum 1b to looped/cyclic peptides of protein N of SARS-CoV Urbani / Binding of serum 2 to looped/cyclic peptides of protein N of SARS-CoV Urbani / Binding of serum 6 to looped/cyclic peptides of protein N of SARS-CoV Urbani / Binding of serum 37 to looped/cyclic peptides of protein N of SARS-CoV Urbani / Binding of serum 62 to looped/cyclic peptides of protein N of SARS-CoV Urbani / Binding of serum London to looped/cyclic peptides of protein N of SARS-CoV Urbani / Binding of serum SARS-green to looped/cyclic peptides of protein N of SARS-CoV Urbani: unit not given here

Sequence	Binding of Control Serum Blood-Bank to Looped peptides [2]	Binding of Control serum Blood-bank to linear peptides [2]	Binding of Control serum LUMC to linear peptides [2]	Binding of Control serum LUMC to looped peptides [2]	Binding of serum 1a to linear peptides of protein X2 [3]	Binding of serum 1a to looped/cyclic peptides of protein X2 of SARS-CoV Urbani [3]	Binding of serum 1b to linear peptides of protein X2 [3]	Binding of serum 1b to looped/cyclic peptides of protein X2 of SARS-CoV Urbani [3]	Binding of serum 2 to linear peptides of protein X2 [3]	Binding of serum 2 to looped/cyclic peptides of protein X2 of SARS-CoV Urbani [3]	Binding of serum 6 to linear peptides of protein X2 [3]	Binding of serum 6 to looped/cyclic peptides of protein X2 of SARS-CoV Urbani [3]	Binding of serum 37 to linear peptides of protein X2 [3]	Binding of serum 37 to looped/cyclic peptides of protein X2 of SARS-CoV Urbani [3]	Binding of serum 62 to linear peptides of protein X2 [3]	Binding of serum 62 to looped/cyclic peptides of protein X2 of SARS-CoV Urbani [3]	Binding of serum London to linear peptides of protein X2 [3]	Binding of serum London to looped/cyclic peptides of protein X2 of SARS-CoV Urbani [3]	Binding of serum SARS-green to linear peptides of protein X2 [3]	Binding of serum SARS-green to looped/cyclic peptides of protein X2 of SARS-CoV Urbani [3]	further results
TAFQHQNSKKTTKLV	0.4	0.6	0.9	0.4	0.7	0.3	0.5	0.3	0.5	0.2	0.7	0.3	0.7	0.2	0.4	0.4	0.4	0.2	0.1	0.1	Recognition of the peptide by the rabbit serum [1]: recognized; Binding of serum SARS-yellow to linear peptides of protein X2 [3]: 0.8; Binding of serum SARS-yellow to looped/cyclic peptides of protein X2 of SARS-CoV Urbani [3]: 0.3
TALQELLIQQWIQFM	0.7	0.7	0.4	0.7	0.8	0.7	0.6	0.5	0.3	0.4	0.2	0.3	0.5	0.5	0.5	0.7	0.4	0.2	0.5	0.5	Binding of a rabbit serum to linear peptides [1]: 0.4; Binding of a rabbit serum to looped peptides [1]: 0.4; Binding of serum SARS-yellow to linear peptides of protein X2 [3]: 0.4; Binding of serum SARS-yellow to looped/cyclic peptides of protein X2 of SARS-CoV Urbani [3]: 0.5
TAWLCALGKVLPFHR	0.4	0.7	0.4	0.6																	Rabbit serum linear peptides [1]: 0.7; Rabbit serum looped peptides [1]: 0.8; Binding of serum 1a to linear peptides of protein X5 of SARS-CoV Urbani [3]: 0.7; Binding of serum 1a to looped/cyclic peptides of protein X5 of SARS-CoV Urbani [3]: 0.4; Binding of serum 1b to linear peptides of protein X5 of SARS-CoV Urbani [3]: 0.5; Binding of serum 1b to looped/cyclic peptides of protein X5 of SARS-CoV Urbani [3]: 0.3; Binding of serum 2 to linear peptides of protein X5 of SARS-CoV Urbani [3]: 0.6; Binding of serum 2 to looped/cyclic peptides of protein X5 of SARS-CoV Urbani [3]: 0.6; Binding of serum 6 to linear peptides of protein X5 of SARS-CoV Urbani [3]: 0.5; Binding of serum 6 to looped/cyclic peptides of protein X5 of SARS-CoV Urbani [3]: 0.9; Binding of serum 37 to linear peptides of protein X5 of SARS-CoV Urbani [3]: 0.7; Binding of serum 37 to looped/cyclic peptides of protein X5 of SARS-CoV Urbani [3]: 0.4; Binding of serum 62 to linear peptides of protein X5 of SARS-CoV Urbani [3]: 0.7; Binding of serum 62 to looped/cyclic peptides of protein X5 of SARS-CoV Urbani [3]: 0.7; Binding of serum London to linear peptides of protein X5 of SARS-CoV Urbani [3]: 0.6; Binding of serum London to looped/cyclic peptides of protein X5 of SARS-CoV Urbani [3]: 1.3; Binding of serum SARS-green to linear peptides of protein X5 of SARS-CoV Urbani [3]: 0.7; Binding of serum SARS-green to looped/cyclic peptides of protein X5 of SARS-CoV Urbani [3]: 0.2; Binding of serum SARS-yellow to linear peptides of protein X5 of SARS-CoV Urbani [3]: 0.3; Binding of serum SARS-yellow to looped/cyclic peptides of protein X5 of SARS-CoV Urbani [3]: 0.8
